Holding throughout (type): cell-based
One data set has as its system A control cell lines. Description: MTT assay, A control cell lines (lung cancer cell). The source says: Please refer to Table 1 and FIGS. 4A-4C. According to a MTT assay (Table 1), various cell viabilities of the A control cell lines can be obtained and illustrated in FIG. 4A while the compounds No. 2˜30 are used to treat A control cell lines, wherein A control cell lines are lung cancer cell.

The nature of data set [1]: MTT assay, HEL299 fibroblast. Particulars: human. An excerpt:
(§1) Please refer to FIG. 4C, various cell viabilities of the HEL299 cell lines can be obtained through the MTT assay while the compounds No. 1˜30 are used to treat HEL299 cell lines, wherein HEL299 cell lines are fibroblast.

For the next data set, the system named is HEL299 fibroblast. The data set is described as follows: MTT assay, HEL299 fibroblast.
Text: as §1

For a further data set, the system named is A3 cell lines. The data set is described as follows: MTT assay, A3 cell lines (lung cancer stem cell). An excerpt: Please to FIG. 4B, various cell viabilities of the A3 cell lines can be obtained through the MTT assay and illustrated in FIG. 4B while the compounds No. 1˜30 are used to treat A3 cell lines, wherein A3 cell lines are lung cancer stem cell.

With `Cc1cc(C)c(CSc2ccc3c(=O)c4ccccc4sc3c2Cl)c(C)c1` [No. 28, 4-Chloro-3-(2,4,6-trimethylbenzylthio)-9H-thioxanthen-9-one], the “cell viabilities of A control cell lines (MTT assay)” value with A control cell lines turned out to be 52.9%. Also, the “inhibition effect on A control cell line (in words)” value with A control cell lines (summary of MTT cell viabilities) is given as “inhibition effect”. In addition, the viability in data set [1] came to 91.2%. For the same molecule, in the data set on HEL299 fibroblast, the “cytotoxicity effect on the normal fibroblast (in words)” value was “without the cytotoxicity effect”. Also, the “cell viabilities of A3 cell lines (MTT assay)” value in the data set with A3 cell lines stood at 98.3 ± 2.25%.

Values taken from patent US8410161B2, “Thioxanthone ring system derivatives” (National Defense Medical Center, priority 2010, dated 2013).
